Experiment [1] deals with T. mentagrophytes ATCC18748. Kind of experiment: Measurement of antifungal activity (MIC, WST8 growth inhibition). Type of experiment: cell-based. As to conditions: Trichophyton mentagrophytes, 72 h; 80% growth inhibition concentration; T. mentagrophytes ATCC18748, RPMI1640/MOPS, 28° C., 3 days. As for the experimental part: (§1) The compounds for evaluation were dissolved in dimethyl sulfoxide (DMSO) and used. As the test medium, RPMI1640 medium containing 0.165 M 3-morpholino propane sulfonic acid (MOPS) was used. As the test strain, T. mentagrophytes ATCC18748 or T. rubrum ATCC10218 was used. 100 μL of the test strain each at a concentration of 1×10^4 conidia/mL was dispensed, mixed with compounds for evaluation on 96 well half area plate so that the concentration of DMSO becomes 1%, and cultured at 28° C. for 3 days (for T. mentagrophytes) or for 4 days (for T. rubrum). Then, 5 μL of Cell Counting Kit8 (WST8) was added and the absorbances at 450 nm and 595 nm was measured as background. Subsequently, they were incubated at 28° C. for 5 hours (for T. mentagrophytes) or overnight (for T. rubrum) to color, and again the absorbances at 450 nm and 595 nm was measured, and then calculated the growth inhibition percentages using the differences from the background, and 80% growth inhibition concentration was regarded as MIC (μg/ml). Measurement of antifungal activity was conducted by the following method. Compounds for evaluation were dissolved in dimethyl sulfoxide (DMSO) and used. As the test medium, RPMI1640 medium containing 0.165 M 3-morpholinopropane sulfonic acid (MOPS) was used. As the test strain, T. mentagrophytes ATCC18748 or T. rubrum ATCC10218 was used. 100 μL of the test strain was dispensed at a concentration of 1×10^4 conidia/mL, mixed with compounds for evaluation on 96 well half area plate so that the concentration of DMSO becomes 1%, and cultured at a culture temperature of 28° C. for 3 days (for T. mentagrophytes) or for 4 days (for T. rubrum). Then, 5 μL of Cell Counting Kit8 (WST8) was added and the absorbances at 450 nm and 595 nm was measured as background. Subsequently, they were incubated at 28° C. for 5 hours (for T. mentagrophytes) or overnight (for T. rubrum), and again measured the absorbances at 450 nm and 595 nm was measured, and then calculated the growth inhibition percentages using the differences from the background, and 80% growth inhibition concentration was regarded as MIC (μg/ml).
Background: Formazan colour is commonly taken as a measure of viable cells.

For experiment [2], the system named is T. rubrum ATCC10218. The description is as above. It is filed as cell-based. To be noted: Trichophyton rubrum, 96 h; 80% growth inhibition concentration; T. rubrum ATCC10218, RPMI1640/MOPS, 28° C., 4 days. The method, then: as §1

Values after ≈ are worked out from the molar mass of the structure shown.

Regarding `CNc1ccc(-n2nc(C)cc2C)c(O)c1` [Example 48, 2-(3,5-Dimethyl-1H-pyrazol-1-yl)-5-methylaminophenol], the values for the MIC in experiment [1] and in experiment [2] were 2 to 8 mg/L (≈ 9.21 to 36.8 µM) and 4 to 16 mg/L (≈ 18.4 to 73.6 µM), respectively.
In the same order, the values of `CC(=O)Oc1ccc(-n2nc(C)cc2C)c(O)c1` [Example 57, 4-(3,5-dimethyl-1H-pyrazol-1-yl)-3-hydroxyphenyl acetate] are 2 to 8 mg/L and 4 to 16 mg/L.
In the same order, the values of `CC(=O)Oc1ccc(-n2nc(C)c(C)c2C)c(O)c1` [Example 59, 3-hydroxy-4-(3,4,5-trimethyl-1H-pyrazol-1-yl)phenyl acetate] are 2 to 8 mg/L and 4 to 16 mg/L.
Take `Cc1cc(C)n(-c2ccc(Br)cc2O)n1` [Example 54, 5-bromo-2-(3,5-dimethyl-1H-pyrazol-1-yl)phenol]: the MIC (usually the least concentration at which growth counts as inhibited) is at most 1 mg/L in experiment [1] and at most 2 mg/L in experiment [2].
With `CC(=O)Oc1ccc(-n2nc(C)c(Cl)c2C)c(O)c1` [Example 58, 4-(4-chloro-3,5-dimethyl-1H-pyrazol-1-yl)-3-hydroxyphenyl acetate], the results for the MIC in experiment [1] and in experiment [2] were 2 to 8 mg/L and at most 2 mg/L, respectively.
As for `Cc1nn(-c2cc(O)ccc2O)c(C)c1Cl` [Example 19, 2-(4-Chloro-3,5-dimethyl-1H-pyrazol-1-yl)benzene-1,4-diol], the MIC in experiment [1] and in experiment [2] was 16 to 32 mg/L (≈ 67 to 134 µM) in each case.
Take `Cc1ccc(-n2nc(C)cc2C)c(O)c1` [Example 44, 2-(3,5-Dimethyl-1H-pyrazol-1-yl)-5-methylphenol]: the results for the MIC in experiment [1] and in experiment [2] were at most 1 mg/L and at most 2 mg/L, respectively.
With `Cc1nn(-c2ccc(C(N)=O)cc2O)c(C)c1C` [Example 41, 3-Hydroxy-4-(3,4,5-trimethyl-1H-pyrazol-1-yl)benzamide], the inhibition of growth (usually the change of the read-out against control, counted positive when it falls) at 32 µg/mL in experiment [1] lay within 50 to 80%. Further, in experiment [2], the MIC lay within 32 to 64 mg/L (≈ 130 to 261 µM).
`Cc1nn(-c2ccc(C(N)=O)cc2O)c(C)c1Cl` [Example 42, 4-(4-Chloro-3,5-dimethyl-1H-pyrazol-1-yl)-3-hydroxybenzamide]: the MIC in experiment [1] was in the range of 16 to 32 mg/L (≈ 60.2 to 120 µM); in experiment [2] it was 32 to 64 mg/L (≈ 120 to 241 µM).
`CC(C)(C)c1cc(N)n(-c2ccccc2O)n1` [Example 10, 2-(5-Amino-3-tert-butyl-1H-pyrazol-1-yl)phenol]: the inhibition of growth at 32 µg/mL in experiment [1] lay within 50 to 80%. This compound also displayed an MIC in experiment [2] above 64 mg/L.
With `Cc1nn(-c2ccccc2O)c(C)c1Cl` [Example 13, 2-(4-Chloro-3,5-dimethyl-1H-pyrazol-1-yl)phenol], the MIC in experiment [1] was at most 1 mg/L; in experiment [2], 4 to 16 mg/L (≈ 18 to 71.9 µM).
For the compound `Cc1cc(C)n(-c2ccc(O)cc2O)n1` [Example 33, 4-(3,5-Dimethyl-1H-pyrazol-1-yl)benzene-1,3-diol], the MIC in experiment [1] is 2 to 8 mg/L (≈ 9.79 to 39.2 µM); in experiment [2], at most 2 mg/L.
In experiment [1], `Cc1cc(C)n(-c2c(N)cccc2O)n1` [Example 36, 3-Amino-2-(3,5-dimethyl-1H-pyrazol-1-yl)phenol] yielded an inhibition of growth at 32 µg/mL below 50%. In experiment [2], this compound had an MIC of 32 to 64 mg/L (≈ 157 to 315 µM).
On to `COC(=O)CCc1c(C)nn(-c2ccccc2O)c1C` [Example 23, Methyl 3-(1-(2-hydroxyphenyl)-3,5-dimethyl-1H-pyrazol-4-yl)propanoate], for which the minimal inhibitory concentration (MIC) lay in the range of 16 to 32 mg/L (≈ 58.3 to 117 µM) in experiment [1] and 32 to 64 mg/L (≈ 117 to 233 µM) in experiment [2].
For `Cc1nn(-c2ccc(O)cc2O)c(C)c1Cl` [Example 63, 4-(4-chloro-3,5-dimethyl-1H-pyrazol-1-yl)benzene-1,3-diol] the same measures were at most 1 mg/L and at most 2 mg/L.
With `Cc1cc(C)n(-c2ccccc2O)n1` [Example 1, 2-(3,5-Dimethyl-1H-pyrazol-1-yl)phenol], the figures for the MIC in experiment [1] and in experiment [2] were 2 to 8 mg/L (≈ 10.6 to 42.5 µM) and 4 to 16 mg/L (≈ 21.3 to 85 µM), respectively.
For `Cc1nn(-c2cc(F)ccc2O)c(C)c1C` [Example 20, 4-Fluoro-2-(3,4,5-trimethyl-1H-pyrazol-1-yl)phenol], the results for the MIC in experiment [1] and in experiment [2] were 16 to 32 mg/L (≈ 72.6 to 145 µM) and 32 to 64 mg/L (≈ 145 to 291 µM), respectively.
On to `Cc1nn(-c2ccc(Cl)cc2O)c(C)c1C` [Example 30, 5-Chloro-2-(3,4,5-trimethyl-1H-pyrazol-1-yl)phenol], for which the MIC in experiment [1] was at most 1 mg/L; in experiment [2], at most 2 mg/L.
For `Cc1cc(C)n(-c2ccc(CO)cc2O)n1` [Example 47, 2-(3,5-Dimethyl-1H-pyrazol-1-yl)-5-hydroxymethylphenol], the MIC was 2 to 8 mg/L (≈ 9.16 to 36.7 µM) in experiment [1] and 4 to 16 mg/L (≈ 18.3 to 73.3 µM) in experiment [2].
In the case of `Cc1nn(-c2ccc([N+](=O)[O-])cc2O)c(C)c1C` [Example 32, 5-Nitro-2-(3,4,5-trimethyl-1H-pyrazol-1-yl)phenol], the MIC was in the range of 2 to 8 mg/L (≈ 8.09 to 32.4 µM) in experiment [1] and 4 to 16 mg/L (≈ 16.2 to 64.7 µM) in experiment [2].
Turning to `Cc1cc(C)n(-c2cccc(C)c2O)n1` [Example 51, 2-(3,5-dimethyl-1H-pyrazol-1-yl)-6-methylphenol], the inhibition of growth at 32 µg/mL in experiment [1] is below 50%. This compound had an MIC in experiment [2] of 32 to 64 mg/L (≈ 158 to 316 µM).
Consider `Cc1cc(C)n(-c2c(O)cccc2O)n1` [Example 43, 2-(3,5-Dimethyl-1H-pyrazol-1-yl)benzene-1,3-diol], for which, in experiment [1], the inhibition of growth at 32 µg/mL was below 50%. Also, the MIC in experiment [2] was in the range of 32 to 64 mg/L (≈ 157 to 313 µM).
Consider `CCOC(=O)c1c(C)nn(-c2ccccc2O)c1C` [Example 22, Ethyl 1-(2-hydroxyphenyl)-3,5-dimethyl-1H-pyrazol-4-carboxylate], for which the MIC in experiment [1] lay within 16 to 32 mg/L (≈ 61.5 to 123 µM); in experiment [2], 32 to 64 mg/L (≈ 123 to 246 µM).
As for `Cc1cc(C)n(-c2cccc(Cl)c2O)n1` [Example 12, 2-Chloro-6-(3,5-dimethyl-1H-pyrazol-1-yl)phenol], the MIC in experiment [1] is 16 to 32 mg/L (≈ 71.9 to 144 µM); in experiment [2] it was above 64 mg/L.
For the compound `Cc1ccn(-c2ccccc2O)n1` [Example 7, 2-(3-Methyl-1H-pyrazol-1-yl)phenol], the MIC in experiment [1] was 16 to 32 mg/L (≈ 91.8 to 184 µM); in experiment [2], above 64 mg/L.
`CCCCc1c(C)nn(-c2ccccc2O)c1C` [Example 24, 2-(4-Butyl-3,5-dimethyl-1H-pyrazol-1-yl)phenol]: the MIC in experiment [1] was at most 1 mg/L; in experiment [2] it was 16 to 32 mg/L (≈ 65.5 to 131 µM).
In the same order, the values of `Cc1cc(C)n(-c2ccc([N+](=O)[O-])cc2O)n1` [Example 28, 2-(3,5-Dimethyl-1H-pyrazol-1-yl)-5-nitrophenol] are 2 to 8 mg/L (≈ 8.58 to 34.3 µM) and 16 to 32 mg/L (≈ 68.6 to 137 µM).
On to `CCc1c(C)nn(-c2ccccc2O)c1C` [Example 17, 2-(4-Ethyl-3,5-dimethyl-1H-pyrazol-1-yl)phenol], for which the MIC in experiment [1] was at most 1 mg/L; in experiment [2] it was at most 2 mg/L.
In the same order, the values of `Cc1cc(C)n(-c2cc(O)ccc2O)n1` [Example 16, 2-(3,5-Dimethyl-1H-pyrazol-1-yl)benzene-1,4-diol] are 16 to 32 mg/L (≈ 78.3 to 157 µM) and above 64 mg/L.
Regarding `Cc1cc(C)n(-c2cccc(O)c2O)n1` [Example 15, 3-(3,5-Dimethyl-1H-pyrazol-1-yl)benzene-1,2-diol], the MIC in experiment [1] and in experiment [2] was 16 to 32 mg/L (≈ 78.3 to 157 µM) in each case.
As to `Cc1cc(C)n(-c2ccc(C(F)(F)F)cc2O)n1` [Example 50, 2-(3,5-Dimethyl-1H-pyrazol-1-yl)-5-trifluoromethylphenol], the MIC was 2 to 8 mg/L (≈ 7.81 to 31.2 µM) in experiment [1] and 4 to 16 mg/L (≈ 15.6 to 62.4 µM) in experiment [2].
For `Oc1ccccc1-n1nc(C(F)(F)F)cc1C(F)(F)F` [Example 6, 2-(3,5-Bistrifluoromethyl-1H-pyrazol-1-yl)phenol], the MIC in experiment [1] was 16 to 32 mg/L (≈ 54 to 108 µM); in experiment [2], above 64 mg/L.
As to `Cc1cc(C(F)(F)F)nn1-c1ccccc1O` [Example 5, 2-(5-Methyl-3-trifluoromethyl-1H-pyrazol-1-yl)phenol], the MIC in experiment [1] fell in the range of 16 to 32 mg/L (≈ 66.1 to 132 µM); in experiment [2] it was 32 to 64 mg/L (≈ 132 to 264 µM).

The values above are taken from US8889727B2, “Topical antifungal agent” (Meiji Seika Pharma Co., Ltd., priority 2011, dated 2014).
